Test results as given in article PMC6637479, “Identification of undecylenic acid as EAG channel inhibitor using surface plasmon resonance-based screen of KCNH channels” (BMC Pharmacology & Toxicology, 2019).

Target: T1, mEAG1 (Mus musculus, UniProt Q60603)
T1 construct: gene Kcnh1; PAS domain, residues 7–136 (N-terminal 6-His)
T1 sequence (Q60603 7-136): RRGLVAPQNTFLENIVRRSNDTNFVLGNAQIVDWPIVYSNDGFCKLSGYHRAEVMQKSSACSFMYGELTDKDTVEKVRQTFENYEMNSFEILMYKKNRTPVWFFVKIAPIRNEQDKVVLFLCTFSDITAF
Test: SPR steady-state dose response (Biacore […]); also inhibits full-length mEAG1 currents in inside-out patches, IC50 […]
Type: binding

Structure (SMILES): C=CCCCCCCCCC(=O)O [undecylenic acid]
- Kd: ~11 µM
